{"source": "patent US6984645B2", "about": "“Dual inhibitors of adipocyte fatty acid binding protein and keratinocyte fatty acid binding protein” (Bristol-Myers Squibb Company, priority 2001, dated 2006)", "note": "Counter-ions that a name gives are not always drawn.", "data": [{"values": [{"smiles": "O=C(O)c1cccc(OCc2ccccc2Cl)c1OCc1ccc[n+]([O-])c1", "melting point": "177 to 179 °C"}, {"smiles": "O=C(O)c1cccc(OCc2ccccc2Cl)c1OCc1nc2ccccc2[nH]1", "note": "(as salt: hydrochloride) [Example 371, 2-(1H-Benzimidazol-2-ylmethoxy)-3-[(2-chlorophenyl)methoxyl]benzoic acid, monohydrochloride]", "melting point": "197 to 201 °C"}, {"smiles": "CO/N=C(/C(=O)O)c1cccc(OCc2ccccc2Cl)c1OCc1ccccc1Cl", "note": "(single isomer, unassigned) [Example 340, (E or Z)-2,3-Bis[(2-chlorophenyl)methoxy]-α-(methoxyimino)benzeneacetic acid]", "melting point": "140 to 141 °C"}, {"smiles": "CO/N=C(/C(=O)O)c1cccc(OCc2ccccc2Cl)c1OCc1ccccc1Cl", "note": "(single isomer, unassigned) [Example 341, (E or Z)-2,3-Bis[(2-chlorophenyl)methoxy]-α-(methoxyimino)benzeneacetic acid]", "melting point": "97 to 99 °C"}, {"smiles": "O=C(O)/C=C/c1cccc(OCc2ccccc2Cl)c1OCc1ccccc1Cl", "note": "[Example 4, 2-(E)-3-[2,3-Bis[(2-chlorophenyl)methoxy]phenyl]-2-propenoic acid]", "melting point": "187 to 189 °C"}, {"smiles": "O=C(O)Cc1cccc(OCc2ccccc2Cl)c1OCc1ccccc1Cl", "note": "[Example 5, 2,3-Bis[(2-chlorophenyl)methoxy]benzeneacetic acid]", "melting point": "105 to 107 °C"}, {"smiles": "O=C(O)C(Cc1cccc(OCc2ccccc2Cl)c1OCc1ccccc1Cl)C(=O)O", "note": "[Example 7, [[2,3-Bis[(2-chlorophenyl)methoxy]phenyl]methyl]propanedioic acid]", "melting point": "148 to 150 °C (dec.)"}, {"smiles": "O=C(O)c1cccc(COc2ccccc2Cl)c1COc1ccccc1Cl", "note": "[Example 9, 2,3-Bis[(2-chlorophenoxy)methyl]benzoic acid]", "melting point": "172 to 174 °C"}, {"smiles": "O=C(O)c1cccc(COc2ccccc2Cl)c1OCc1ccccc1Cl", "note": "[Example 10, 3-[(2-Chlorophenoxy)methyl]-2-[(2-chlorophenyl)methoxy]benzoic acid]", "melting point": "172 to 174 °C"}, {"smiles": "O=C(O)C(F)c1cccc(OCc2ccccc2Cl)c1OCc1ccccc1Cl", "note": "(stereo not drawn) [Example 24, 2,3-Bis[(2-chlorophenyl)methoxy]-α-fluorobenzeneacetic acid]", "melting point": "92 to 94 °C"}, {"smiles": "O=C(O)C(=O)c1cccc(OCc2ccccc2Cl)c1OCc1ccccc1Cl", "note": "[Example 26, 2,3-Bis[(2-chlorophenyl)methoxy]-α-oxobenzeneacetic acid]", "melting point": "116 to 118 °C"}, {"smiles": "O=C(O)C(F)(F)c1cccc(OCc2ccccc2Cl)c1OCc1ccccc1Cl", "note": "[Example 27, 2,3-Bis[(2-chlorophenyl)methoxy]-α,α-difluorobenzeneacetic acid]", "melting point": "113 to 115 °C"}, {"smiles": "O=C(O)C(O)c1cccc(OCc2ccccc2Cl)c1OCc1ccncc1", "note": "(stereo not drawn) [Example 344, 3-[(2-Chlorophenyl)methoxy]-α-hydroxy-2-(4-pyridinylmethoxy)benzeneacetic acid]", "melting point": "181 to 183 °C"}, {"smiles": "O=C(O)c1cccc(OCc2cc(Cl)cc(Cl)c2)c1OCc1cc(Cl)cc(Cl)c1", "note": "[Example 345, 2,3-Bis[(3,5-dichlorophenyl)methoxy]benzoic acid]", "melting point": "219 to 220 °C"}, {"smiles": "O=C(O)c1cccc(OCc2ccc(Cl)cc2Cl)c1OCc1ccc(Cl)cc1Cl", "note": "[Example 346, 2,3-Bis[(2,4-dichlorophenyl)methoxy]benzoic acid]", "melting point": "168 to 169 °C"}, {"smiles": "O=C(O)c1cccc(OCc2ccccc2Cl)c1OCc1ccccc1Cl", "note": "[Example 347, 2,3-Bis[(2-chlorophenyl)methoxy]benzoic acid]", "melting point": "156 to 157 °C"}, {"smiles": "O=C(O)c1cccc(OCc2cccc(Cl)c2)c1OCc1cccc(Cl)c1", "note": "[Example 348, 2,3-Bis[(3-chlorophenyl)methoxy]benzoic acid]", "melting point": "126 to 127 °C"}, {"smiles": "O=C(O)c1cccc(OCc2ccc(Cl)cc2)c1OCc1ccc(Cl)cc1", "note": "[Example 349, 2,3-Bis[(4-chlorophenyl)methoxy]benzoic acid]", "melting point": "174 to 175 °C"}, {"smiles": "O=C(O)c1cccc(OCc2cc(C(F)(F)F)cc(C(F)(F)F)c2)c1OCc1cc(C(F)(F)F)cc(C(F)(F)F)c1", "note": "[Example 350, 2,3-Bis[[3,5-bis(trifluoromethyl)phenyl]methoxy]benzoic acid]", "melting point": "156 to 158 °C"}, {"smiles": "Cc1ccc(C)c(COc2cccc(C(=O)O)c2OCc2cc(C)ccc2C)c1", "note": "[Example 351, 2,3-Bis[(2,5-dimethylphenyl)methoxy]benzoic acid]", "melting point": "114 to 116 °C"}, {"smiles": "Cc1cc(C)cc(COc2cccc(C(=O)O)c2OCc2cc(C)cc(C)c2)c1", "note": "[Example 352]", "melting point": "117 to 118 °C"}, {"smiles": "O=C(O)c1cccc(OCc2ccccc2)c1OCc1ccc(Cl)cc1Cl", "note": "[Example 353, 2-[(2,4-Dichlorophenyl)methoxy]-3-(phenylmethoxy)benzoic acid]", "melting point": "140 to 142 °C"}, {"smiles": "O=C(O)c1cccc(OCc2ccc(Cl)cc2Cl)c1OCc1ccccc1", "note": "[Example 354, 3-[(2,4-Dichlorophenyl)methoxy]-2-(phenylmethoxy)benzoic acid]", "melting point": "151 to 153 °C"}, {"smiles": "O=C(O)c1cc(Br)cc(OCc2ccccc2Cl)c1OCc1ccccc1Cl", "note": "[Example 355, 5-Bromo-2,3-bis[(2-chlorophenyl)methoxy]benzoic acid]", "melting point": "186 to 187 °C"}, {"smiles": "O=C(O)c1cc(Br)cc(OCc2ccccc2)c1OCc1ccccc1", "note": "[Example 356, 5-Bromo-2,3-bis(phenylmethoxy)benzoic acid]", "melting point": "151 to 153 °C"}, {"smiles": "Cc1cccc(COc2c(OCc3ccccc3Cl)cccc2C(=O)O)c1", "note": "[Example 357, 3-[(2-Chlorophenyl)methoxy]-2-[(3-methylphenyl)methoxy]benzoic acid]", "melting point": "107 to 109 °C"}, {"smiles": "O=C(O)c1cccc(OCc2ccccc2Cl)c1OCc1cccc(F)c1", "note": "[Example 358, 3-[(2-Chlorophenyl)methoxy]-2-[(3-fluorophenyl)methoxy]benzoic acid]", "melting point": "152 to 154 °C"}, {"smiles": "O=C(O)c1cccc(OCc2ccccc2Cl)c1OCc1cccc(C(F)(F)F)c1", "note": "[Example 359]", "melting point": "128 to 129 °C"}, {"smiles": "O=C(O)c1cccc(OCc2ccccc2Cl)c1OCc1ccc(OCc2ccccc2)cc1", "note": "[Example 360, 3-[(2-Chlorophenyl)methoxy]-2-[[4-(phenylmethoxy)phenyl]methoxy]benzoic acid]", "melting point": "107 to 109 °C"}, {"smiles": "Cc1cc(C)cc(COc2c(OCc3ccccc3Cl)cccc2C(=O)O)c1", "note": "[Example 361, 3-[(2-Chlorophenyl)methoxy]-2-[(3,5-dimethylphenyl)methoxy]benzoic acid]", "melting point": "122 to 123 °C"}, {"smiles": "COc1ccccc1COc1c(OCc2ccccc2Cl)cccc1C(=O)O", "note": "[Example 362, 3-[(2-Chlorophenyl)methoxy]-2-[(2-methoxyphenyl)methoxy]benzoic acid]", "melting point": "110 to 112 °C"}, {"smiles": "O=C(O)c1cccc(OCc2ccccc2Cl)c1OCc1ccccn1", "note": "[Example 363]", "melting point": "168 to 170 °C"}, {"smiles": "O=C(O)c1cccc(OCc2ccccc2Cl)c1OCc1ccncc1", "note": "[Example 364]", "melting point": "157 to 159 °C"}, {"smiles": "O=C(O)c1cccc(OCc2ccccc2Cl)c1OCc1cccnc1", "note": "[Example 365]", "melting point": "181 to 182 °C"}, {"smiles": "O=C(O)c1cccc(OCc2ccccc2Cl)c1OCc1cccnc1Cl", "note": "[Example 366, 3-[(2-Chlorophenyl)methoxy]-2-[(2-chloro-3-pyridinyl)methoxy)benzoic acid]", "melting point": "183 to 184 °C"}, {"smiles": "O=C(O)c1cccc(OCc2ccccc2Cl)c1OCc1cccc[n+]1[O-]", "note": "[Example 367, 3-[(2-Chlorophenyl)methoxy]-2-[(1-oxido-2-pyridinyl)methoxy]benzoic acid]", "melting point": "189 to 191 °C"}, {"smiles": "O=C(O)c1cccc(OCc2ccccc2Cl)c1OCc1cc[n+]([O-])cc1", "note": "[Example 369, 3-[(2-Chlorophenyl)methoxy]-2-[(1-oxido-4-pyridinyl)methoxy]benzoic acid]", "melting point": "186 to 188 °C"}, {"smiles": "O=C(O)c1cccc(OCc2ccccc2Cl)c1OCc1ccc[n+]([O-])c1Cl", "note": "[Example 370, 3-[(2-Chlorophenyl)methoxy]-2-[(2-chloro-1-oxido-3-pyridinyl)methoxy]benzoic acid]", "melting point": "145 to 148 °C"}, {"smiles": "Cn1c(COc2c(OCc3ccccc3Cl)cccc2C(=O)O)nc2ccccc21", "note": "[Example 372]", "melting point": "179 to 182 °C"}, {"smiles": "O=C(O)c1c(Br)ccc(OCc2ccccc2Cl)c1OCc1ccccc1Cl", "note": "[Example 373, 6-Bromo-2,3-bis[(2-chlorophenyl)methoxy]benzoic acid]", "melting point": "156 to 158 °C"}, {"smiles": "O=C(O)c1c(Br)ccc(OCc2ccccc2)c1OCc1ccccc1", "note": "[Example 374, 6-Bromo-2,3-bis(phenylmethoxy)benzoic acid]", "melting point": "164 to 166 °C"}, {"smiles": "O=C(Nc1c(OCc2ccccc2)cccc1C(=O)O)c1ccccc1", "note": "[Example 375, 2-(Benzoylamino)-3-(phenylmethoxy)benzoic acid]", "melting point": "167 to 168 °C"}, {"smiles": "O=C(Nc1c(OCc2ccccc2)cccc1C(=O)O)c1ccc(Cl)cc1Cl", "note": "[Example 381, 2-[(2,4-Dichlorobenzoyl)amino]-3-(phenylmethoxy)benzoic acid]", "melting point": "208 to 210 °C"}, {"smiles": "O=C(Nc1c(OCc2ccccc2)cccc1C(=O)O)c1cc(Cl)cc(Cl)c1", "note": "[Example 382, 2-[(3,5-Dichlorobenzoyl)amino]-3-(phenylmethoxy)benzoic acid]", "melting point": "202 to 204 °C"}, {"smiles": "O=C(Nc1c(OCc2c(Cl)cccc2Cl)cccc1C(=O)O)c1ccccc1", "note": "[Example 383]", "melting point": "145 to 147 °C"}, {"smiles": "O=C(Nc1c(OCc2cc(Cl)ccc2Cl)cccc1C(=O)O)c1ccccc1", "note": "[Example 384]", "melting point": "187 to 189 °C"}, {"smiles": "O=C(Nc1c(OCc2ccc(Cl)cc2Cl)cccc1C(=O)O)c1ccccc1", "note": "[Example 387, 2-(Benzoylamino)-3-[(2,4-dichlorophenyl)methoxy]benzoic acid]", "melting point": "182 to 184 °C"}, {"smiles": "O=C(Nc1cccc(C(=O)O)c1OCc1ccccc1Cl)c1ccccc1Cl", "note": "[Example 392, 3-[(2-Chlorobenzoyl)amino]-2-[(2-chlorophenyl)methoxy]benzoic acid]", "melting point": "182 to 183 °C"}]}]}
